Key:
[1] = molecular target: T1, Sterol O-acyltransferase 1 (Mus musculus, UniProt Q61263); assay: Inhibition of Acyl coenzyme A:cholesterol acyltransferase in J774 Macrophage cell culture; type: cell-based
T1 sequence (Q61263 whole entry): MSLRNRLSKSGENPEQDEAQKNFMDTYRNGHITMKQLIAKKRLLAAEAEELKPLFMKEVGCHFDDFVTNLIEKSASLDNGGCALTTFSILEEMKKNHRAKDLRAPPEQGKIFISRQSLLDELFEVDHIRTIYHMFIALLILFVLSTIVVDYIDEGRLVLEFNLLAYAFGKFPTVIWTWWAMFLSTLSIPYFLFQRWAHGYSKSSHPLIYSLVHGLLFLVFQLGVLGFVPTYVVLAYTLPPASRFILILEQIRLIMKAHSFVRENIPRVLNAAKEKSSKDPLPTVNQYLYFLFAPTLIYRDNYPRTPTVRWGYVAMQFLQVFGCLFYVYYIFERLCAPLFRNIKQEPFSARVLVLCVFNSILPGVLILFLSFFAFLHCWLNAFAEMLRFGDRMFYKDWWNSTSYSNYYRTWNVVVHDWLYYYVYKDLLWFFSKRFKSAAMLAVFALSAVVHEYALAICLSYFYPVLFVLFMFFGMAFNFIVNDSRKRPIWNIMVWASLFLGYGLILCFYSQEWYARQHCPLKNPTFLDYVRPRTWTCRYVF

[2] = molecular target: T2, Sterol O-acyltransferase 1 (Rattus norvegicus, UniProt O70536); assay: In vitro inhibition of Acyl coenzyme A:cholesterol acyltransferase in rat hepatic microsomes was measured by using AIV assay; set-up: species or system Liver
T2 sequence (O70536 whole entry): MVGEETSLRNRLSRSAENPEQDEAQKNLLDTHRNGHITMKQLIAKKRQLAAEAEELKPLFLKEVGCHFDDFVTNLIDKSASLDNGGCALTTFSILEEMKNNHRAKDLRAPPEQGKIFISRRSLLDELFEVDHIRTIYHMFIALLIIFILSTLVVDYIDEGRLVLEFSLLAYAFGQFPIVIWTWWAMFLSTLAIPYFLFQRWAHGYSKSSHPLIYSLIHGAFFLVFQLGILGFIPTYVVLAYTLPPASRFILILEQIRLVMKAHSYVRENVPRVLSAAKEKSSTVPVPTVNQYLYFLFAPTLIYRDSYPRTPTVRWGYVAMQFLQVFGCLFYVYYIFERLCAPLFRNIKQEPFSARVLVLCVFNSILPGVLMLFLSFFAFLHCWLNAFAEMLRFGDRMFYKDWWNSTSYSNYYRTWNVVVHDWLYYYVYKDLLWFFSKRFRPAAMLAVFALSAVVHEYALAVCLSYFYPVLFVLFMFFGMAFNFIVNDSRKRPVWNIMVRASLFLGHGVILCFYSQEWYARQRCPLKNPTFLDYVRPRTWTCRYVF

Cricetinae gen. sp. [3] = assay: Tested for effective dose required to lower the serum cholesterol levels in hamsters; type: functional, Cricetulus griseus
Cricetinae gen. sp. [4] = assay: In vivo cholesterol lowering at a single dose of 25 mg/kg in the hamster was determined; type: functional, Cricetulus griseus

## CN(C)c1ccc(-c2nc(SCCCCCNc3nc4ccccc4o3)[nH]c2-c2ccc(N(C)C)cc2)cc1
[1]
  IC50: 90 nM

## c1ccc(-c2nc(SCCCCCSc3nc(-c4ccccc4)c(-c4ccccc4)[nH]3)[nH]c2-c2ccccc2)cc1
[2]
  IC50: 30 nM
[1]
  IC50: 6920 nM

## CCN(CCCCCSc1nc(-c2ccc(OC)cc2)c(-c2ccc(OC)cc2)[nH]1)c1nc2ccccc2o1
[2]
  IC50: 140 nM
[1]
  IC50: 90 nM

## COc1ccc(-c2nc(SCCCCCSc3nc4ccccc4[nH]3)[nH]c2-c2ccc(OC)cc2)cc1
[2]
  IC50: 630 nM
[1]
  IC50: 830 nM

## CCCCN(CCCCCSc1nc(-c2ccc(OC)cc2)c(-c2ccc(OC)cc2)[nH]1)c1nc2ccccc2o1
[2]
  IC50: 80 nM
[1]
  IC50: 70 nM

## COCCOCCN(CCCCCSc1nc(-c2ccc(OC)cc2)c(-c2ccc(OC)cc2)[nH]1)c1nc2ccccc2o1
[2]
  IC50: 40 nM
[1]
  IC50: 80 nM

## COc1ccc(-c2nc(SCCCCCSc3nc4ncncc4[nH]3)[nH]c2-c2ccc(OC)cc2)cc1
[1]
  IC50: 880 nM

## COc1ccc(-c2nc(SCCCCCn3c(Nc4ccccc4)nc4ccccc43)[nH]c2-c2ccc(OC)cc2)cc1
[2]
  IC50: 750 nM
[1]
  IC50: 640 nM

## c1ccc(-c2nc(SCCCCCSc3ncnc4nc[nH]c34)[nH]c2-c2ccccc2)cc1
[1]
  IC50: 7510 nM

## CCCCCCCN(CCCCCSc1nc(-c2ccccc2)c(-c2ccccc2)[nH]1)C(=O)Nc1ccc(F)cc1F [LECIMIBIDE]
[1]
  IC50: 1000 nM
Cricetinae gen. sp. [3]
  ED50: 3 mg/kg

## Cc1cc(C)n(CCCCCSc2nc(-c3ccc(N(C)C)cc3)c(-c3ccc(N(C)C)cc3)[nH]2)n1
[1]
  IC50: 250 nM

## COc1ccc(-c2nc(SCCCCCn3c4ccccc4c4ccccc43)[nH]c2-c2ccc(OC)cc2)cc1
[2]
  IC50: 50000 nM
[1]
  IC50: 55700 nM

## CCCCCCCN(CCCCSc1nc(-c2ccc(OC)cc2)c(-c2ccc(OC)cc2)[nH]1)c1nc2ccccc2o1
[1]
  IC50: 500 nM

## CCCCN(CCCCCSc1nc(-c2ccc(OC)cc2)c(-c2ccc(OC)cc2)[nH]1)c1nc2cc(C(C)(C)C)ccc2o1
[2]
  IC50: 80 nM
[1]
  IC50: 70 nM

## COc1ccc(-c2nc(SCCCCCSc3ncnc4nc[nH]c34)[nH]c2-c2ccc(OC)cc2)cc1
[1]
  IC50: 3650 nM

## CC(C)c1nc2ccccc2n1CCCCCSc1nc(-c2ccc(N(C)C)cc2)c(-c2ccc(N(C)C)cc2)[nH]1
[2]
  IC50: 400 nM
[1]
  IC50: 80 nM

## CCCCCCCN(CCCCCSc1nc(-c2ccc(OC)cc2)c(-c2ccc(OC)cc2)[nH]1)c1nc2ccccc2o1
[2]
  IC50: 40 nM
[1]
  IC50: 80 nM

## COc1ccc(-c2nc(SCCCCCSc3nc4c([nH]3)c(=O)n(C)c(=O)n4C)[nH]c2-c2ccc(OC)cc2)cc1
[1]
  IC50: 8330 nM

## CCN(CCCCCSc1nc(-c2ccc(N(C)C)cc2)c(-c2ccc(N(C)C)cc2)[nH]1)c1nc2ccccc2o1
[1]
  IC50: 50 nM

## CN(C)c1ccc(-c2nc(SCCCCCSc3nc(-c4ccc(N(C)C)cc4)c(-c4ccc(N(C)C)cc4)[nH]3)[nH]c2-c2ccc(N(C)C)cc2)cc1
[2]
  IC50: 90 nM
[1]
  IC50: 60 nM

## COc1ccc(-c2nc(SCCCCCn3c(C(C)C)nc4ccccc43)[nH]c2-c2ccc(OC)cc2)cc1
[2]
  IC50: 230 nM
[1]
  IC50: 320 nM

## CCCCCCCN(CCCCCSc1nc(-c2ccccc2)c(-c2ccccc2)[nH]1)c1nc2ccccc2o1
[2]
  IC50: 300 nM
[1]
  IC50: 20 nM
Cricetinae gen. sp. [4]
  Activity: 30%

## CCCCCCCN(CCCCCSc1nc(-c2ccc(OC)cc2)c(-c2ccc(OC)cc2)[nH]1)c1nc2ccccc2[nH]1
[2]
  IC50: 90 nM
[1]
  IC50: 490 nM

## c1ccc(-c2nc(SCc3cccc(C4(CNc5nc6ccccc6o5)CCCC4)c3)[nH]c2-c2ccccc2)cc1
[1]
  IC50: 5900 nM

## CC(CCCSc1nc(-c2ccccc2)c(-c2ccccc2)[nH]1)(CNc1nc2ccccc2o1)c1ccccc1 (configuration not stated)
[1]
  IC50: 5000 nM

## CC(C)c1nc2ccccc2n1CCCCCSc1nc(-c2ccccc2)c(-c2ccccc2)[nH]1
[2]
  IC50: 690 nM
[1]
  IC50: 710 nM

## CCN(CCCCCSc1nc(-c2ccccc2)c(-c2ccc(SC)cc2)[nH]1)c1nc2ccccc2o1
[2]
  IC50: 700 nM
[1]
  IC50: 500 nM

## CCCCCCCN(CCCCCSc1nc(-c2ccccc2)c(-c2ccccc2)[nH]1)c1nc2ccccc2s1
[1]
  IC50: 660 nM

## COc1ccc(-c2nc(SCC(C)(CSc3nc4ccccc4o3)c3ccccc3)[nH]c2-c2ccc(OC)cc2)cc1 (configuration not stated)
[1]
  IC50: 3240 nM

## COc1ccc(-c2nc(SCCCCCSc3nc(-c4ccc(OC)cc4)c(-c4ccc(OC)cc4)[nH]3)[nH]c2-c2ccc(OC)cc2)cc1
[2]
  IC50: 220 nM
[1]
  IC50: 200 nM

## CCCCN(CCCCCSc1nc(-c2ccc(OC)cc2)c(-c2ccc(OC)cc2)[nH]1)c1nc2cc(Cl)c([N+](=O)[O-])cc2o1
[1]
  IC50: 1000 nM

## COc1ccc(-c2nc(SCCCCCn3c(SC)nc4ccccc43)[nH]c2-c2ccc(OC)cc2)cc1
[2]
  IC50: 1400 nM
[1]
  IC50: 950 nM

From ChEMBL document CHEMBL1128040, “Acyl CoA:cholesterol acyltransferase (ACAT) inhibitors: heterocyclic bioisosteres for the urea group in DuP 128” (Bioorg Med Chem Lett, 1995)
